Legend:
[1] = tested on: FADD−/− Jurkat cells; assay: Necroptosis inhibition assay, TNF-α-induced necroptosis (CellTiter-Glo 2.0); assay type: cell-based, human; settings: TNF-α 15 ng/mL; for Necroptosis inhibition assay (Rescue %) 1 μM: compound 1 μM; for Necroptosis inhibition assay (Rescue %) 10 μM: compound 10 μM
How it was run: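 Cmpd 0.1/1/10 μM final, 30 min RT preincubation; TNF-α 15 ng/mL final; 20–24 h, 37° C, 5% CO2. Readout: ATP luminescence (reagent 1:3 in PBS), 0.5 s/well. Cytotoxicity and % necroptosis inhibition calculated from signal.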

[2] = biological target: T1, MLKL (Homo sapiens, UniProt Q8NB16); assay: MLKL degradation assay in HepG2 cell line (western blot); assay type: cell-based; parameters: endogenous in cells; host or cells: HepG2 or HaCaT; settings: cell line not given; for Degradation assay (Degradation %) 1 μM: compound 1 μM; for Degradation assay (Degradation %) 10 μM: compound 10 μM
T1 sequence (Q8NB16 1-471): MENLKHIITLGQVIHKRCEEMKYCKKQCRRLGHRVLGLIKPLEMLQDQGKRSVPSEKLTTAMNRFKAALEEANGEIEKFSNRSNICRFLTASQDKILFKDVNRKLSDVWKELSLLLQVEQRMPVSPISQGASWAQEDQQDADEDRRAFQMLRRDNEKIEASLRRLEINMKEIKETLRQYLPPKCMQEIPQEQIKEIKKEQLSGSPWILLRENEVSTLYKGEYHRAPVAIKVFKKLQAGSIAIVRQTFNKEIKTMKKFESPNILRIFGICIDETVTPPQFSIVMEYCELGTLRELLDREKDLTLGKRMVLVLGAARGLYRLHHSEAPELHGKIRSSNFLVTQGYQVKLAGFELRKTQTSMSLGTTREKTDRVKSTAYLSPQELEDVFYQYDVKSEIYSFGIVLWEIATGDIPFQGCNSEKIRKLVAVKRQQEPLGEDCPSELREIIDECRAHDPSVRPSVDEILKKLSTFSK
How it was run: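 HepG2, cpd final 1 or 10 μM, 20-24 h, 37 °C/5% CO2; RIPA lysis, BCA-normalized, 10-15 μg/lane SDS-PAGE, western blot, ECL read-out.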

[3] = biological target: T1, MLKL; assay: Measurement of binding affinity with MLKL receptor (competitive binding assay, Kd); parameters: made in house; host or cells: HEK 293 cell line (T7 phage in E. coli BL21-derived host is also described)
How it was run: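 qPCR of MLKL eluted from liganded beads served as the read-out, from which Kd was derived. The protein was made in HEK 293 cells with a DNA tag, and test compounds competed with the bead-bound ligand at 0.9% final DMSO.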

Degradation assay (Degradation %) 1 μM [2] [%] | Degradation assay (Degradation %) 10 μM [2] [%] | Kd [3] [nM] | SMILES | Necroptosis inhibition assay (Rescue %) 1 μM [1] [%] | Necroptosis inhibition assay (Rescue %) 10 μM [1] [%]
84.58 | 77.74 | 12 | Nc1ncc(-c2cnn(C3CCN(CC4CCN(C(=O)C5CCN(c6ccc7nnn(C8CCC(=O)NC8=O)c(=O)c7c6)CC5)CC4)CC3)c2)nc1C(=O)O[C@@H](C(=O)Nc1ccc(F)cc1)c1ccccc1 (stereo partly drawn) [TDH-151, (R)-2-((4-fluorophenyl)amino)-2-oxo-1-phenylethyl 3-amino-6-(1-(1-((1-(1-(3-(2,6-dioxopiperidin-3-yl)-4-oxo-3,4-dihydrobenzo[d][1,2,3]triazin-6-yl)piperidine-4-carbonyl)piperidin-4-yl)methyl)piperidin-4-yl)-1H-pyrazol-4-yl)pyrazine-2-carboxylate] | 85.85 | 60.12
51.96 | 35.05 | 2.7 | Nc1ncc(-c2cnn(C3CCN(CC4CCN(C(=O)CNc5ccc6nnn(C7CCC(=O)NC7=O)c(=O)c6c5)CC4)CC3)c2)nc1C(=O)O[C@@H](C(=O)Nc1ccc(F)cc1)c1ccccc1 (stereo partly drawn) [TDH-152, (R)-2-((4-fluorophenyl)amino)-2-oxo-1-phenylethyl 3-amino-6-(1-(1-((1-((3-(2,6-dioxopiperidin-3-yl)-4-oxo-3,4-dihydrobenzo[d][1,2,3]triazin-6-yl)glycyl)piperidin-4-yl)methyl)piperidin-4-yl)-1H-pyrazol-4-yl)pyrazine-2-carboxylate] | 63.2 | 41.21
37.66 | 24.63 | 9.2 | Nc1ncc(-c2cnn(C3CCN(CCOCCOCCOCCNc4cccc5c4C(=O)N(C4CCC(=O)NC4=O)C5=O)CC3)c2)nc1C(=O)O[C@@H](C(=O)Nc1ccc(F)cc1)c1ccccc1 (stereo partly drawn) [TDH-153, (R)-2-((4-fluorophenyl)amino)-2-oxo-1-phenylethyl 3-amino-6-(1-(1-(2-(2-(2-(2-((2-(2,6-dioxopiperidin-3-yl)-1,3-dioxoisoindolin-4-yl)amino)ethoxy)ethoxy)ethoxy)ethyl)piperidin-4-yl)-1H-pyrazol-4-yl)pyrazine-2-carboxylate] | 37.21 | 16.52
25.56 | 28.19 | 3.8 | Nc1ncc(-c2cnn(C3CCN(CCOCCOCCOCCNc4ccc5c(c4)C(=O)N(C4CCC(=O)NC4=O)C5=O)CC3)c2)nc1C(=O)O[C@@H](C(=O)Nc1ccc(F)cc1)c1ccccc1 (stereo partly drawn) [TDH-154, (R)-2-((4-fluorophenyl)amino)-2-oxo-1-phenylethyl 3-amino-6-(1-(1-(2-(2-(2-(2-((2-(2,6-dioxopiperidin-3-yl)-1,3-dioxoisoindolin-5-yl)amino)ethoxy)ethoxy)ethoxy)ethyl)piperidin-4-yl)-1H-pyrazol-4-yl)pyrazine-2-carboxylate] | 37.01 | 23.23
31.35 | 63.85 | 9.5 | Nc1ncc(-c2cnn(C3CCN(CCOCCOCCOCCNC(=O)COc4cccc5c4C(=O)N(C4CCC(=O)NC4=O)C5=O)CC3)c2)nc1C(=O)O[C@@H](C(=O)Nc1ccc(F)cc1)c1ccccc1 (stereo partly drawn) [TDH-155, (R)-2-((4-fluorophenyl)amino)-2-oxo-1-phenylethyl 3-amino-6-(1-(1-(1-((2-(2,6-dioxopiperidin-3-yl)-1,3-dioxoisoindolin-4-yl)oxy)-2-oxo-6,9,12-trioxa-3-azatetradecan-14-yl)piperidin-4-yl)-1H-pyrazol-4-yl)pyrazine-2-carboxylate] | 31.1 | 64.6
31.35 | 18.75 | 53 | Nc1ncc(-c2cnn(C3CCN(CCCCCCCCCCNC(=O)C4CCN(c5cccc6c5C(=O)N(C5CCC(=O)NC5=O)C6=O)CC4)CC3)c2)nc1C(=O)O[C@@H](C(=O)Nc1ccc(F)cc1)c1ccccc1 (stereo partly drawn) [TDH-156, (R)-2-((4-fluorophenyl)amino)-2-oxo-1-phenylethyl 3-amino-6-(1-(1-(10-(1-(2-(2,6-dioxopiperidin-3-yl)-1,3-dioxoisoindolin-4-yl)piperidine-4-carboxamido)decyl)piperidin-4-yl)-1H-pyrazol-4-yl)pyrazine-2-carboxylate] | 19.9 | 21.77
62.45 | 64.73 | 47 | Nc1ncc(-c2cnn(C3CCN(CCCCCCCCCCNC(=O)C4CCN(c5ccc6c(c5)C(=O)N(C5CCC(=O)NC5=O)C6=O)CC4)CC3)c2)nc1C(=O)O[C@@H](C(=O)Nc1ccc(F)cc1)c1ccccc1 (stereo partly drawn) [TDH-157, (R)-2-((4-fluorophenyl)amino)-2-oxo-1-phenylethyl 3-amino-6-(1-(1-(10-(1-(2-(2,6-dioxopiperidin-3-yl)-1,3-dioxoisoindolin-5-yl)piperidine-4-carboxamido)decyl)piperidin-4-yl)-1H-pyrazol-4-yl)pyrazine-2-carboxylate] | 37.7 | 45.37
 | 29.21 | 18 | Nc1ncc(-c2cnn(C3CCN(CCCCCCCCCCNC(=O)C4CN(c5ccc6c(c5)C(=O)N(C5CCC(=O)NC5=O)C6=O)C4)CC3)c2)nc1C(=O)O[C@@H](C(=O)Nc1ccc(F)cc1)c1ccccc1 (stereo partly drawn) [TDH-159, (R)-2-((4-fluorophenyl)amino)-2-oxo-1-phenylethyl 3-amino-6-(1-(1-(10-(1-(2-(2,6-dioxopiperidin-3-yl)-1,3-dioxoisoindolin-5-yl)azetidine-3-carboxamido)decyl)piperidin-4-yl)-1H-pyrazol-4-yl)pyrazine-2-carboxylate] | 33.57 | 34.1
55.2 | 46.68 | 20 | Nc1ncc(-c2cnn(C3CCN(CCCCCCCCCCNC(=O)COc4ccc5c(c4)C(=O)N(C4CCC(=O)NC4=O)C5=O)CC3)c2)nc1C(=O)O[C@@H](C(=O)Nc1ccc(F)cc1)c1ccccc1 (stereo partly drawn) [TDH-164, (R)-2-((4-fluorophenyl)amino)-2-oxo-1-phenylethyl 3-amino-6-(1-(1-(10-(2-((2-(2,6-dioxopiperidin-3-yl)-1,3-dioxoisoindolin-5-yl)oxy)acetamido)decyl)piperidin-4-yl)-1H-pyrazol-4-yl)pyrazine-2-carboxylate] | 27.84 | 10.5
62.49 | 61.44 | 0.9 | Nc1ncc(-c2cnn(C3CCN(CCCCCCNC(=O)COc4ccc5c(c4)C(=O)N(C4CCC(=O)NC4=O)C5=O)CC3)c2)nc1C(=O)O[C@@H](C(=O)Nc1ccc(F)cc1)c1ccccc1 (stereo partly drawn) [TDH-165, (R)-2-((4-fluorophenyl)amino)-2-oxo-1-phenylethyl 3-amino-6-(1-(1-(6-(2-((2-(2,6-dioxopiperidin-3-yl)-1,3-dioxoisoindolin-5-yl)oxy)acetamido)hexyl)piperidin-4-yl)-1H-pyrazol-4-yl)pyrazine-2-carboxylate] | 52.37 | 4.66
18.17 | 60.05 | 3.4 | Nc1ncc(-c2cnn(C3CCN(CCOCCOCCOCCNC(=O)COc4ccc5c(c4)C(=O)N(C4CCC(=O)NC4=O)C5=O)CC3)c2)nc1C(=O)O[C@@H](C(=O)Nc1ccc(F)cc1)c1ccccc1 (stereo partly drawn) [TDH-166, (R)-2-((4-fluorophenyl)amino)-2-oxo-1-phenylethyl 3-amino-6-(1-(1-(1-((2-(2,6-dioxopiperidin-3-yl)-1,3-dioxoisoindolin-5-yl)oxy)-2-oxo-6,9,12-trioxa-3-azatetradecan-14-yl)piperidin-4-yl)-1H-pyrazol-4-yl)pyrazine-2-carboxylate] | 27.44 | 65.57
